Reference: patent publication US20160257651A1, “NOVEL COMPOUND WITH ANTIBACTERIAL ACTIVITY” (priority 2013, published 2016)
≈ marks a conversion by molar mass, not a printed value. Where two headings read alike, the source gives them in different places.

How the values were obtained:
E. faecium RPR2 = assay: MIC against Enterococcus bacteria; format: cell-based, Enterococcus faecium
Method: (§1) Antibacterial activities of the compound J-131CP against Enterococcus bacteria (Enterococcus faecium and Enterococcus faecalis) were examined by the following methods.
(§2) The compound J-131CP and quinolones were prepared in the same manner as that of Test Example 1-1.
(§3) Cell suspensions were prepared in the same manner as that of Test Example 1-1 described in the section of measurement of MIC in Test Example 1-1, except that the Enterococcus bacterium strains mentioned in Table 8 were used instead of Staphylococcus aureus, and MICs of the compound J-131CP and quinolones as control were determined for the strains in the same manner as that of Test Example 1-1 described in the section of measurement of MIC in Test Example 1-1. In Table 8, the amino acid substitution mutations in QRDR of the strains are underlined.

E. faecium NCTC12202 = assay: MIC against Enterococcus bacteria; format: cell-based, Enterococcus faecium; settings: Enterococcus faecium, NCTC 12202 / VRE
Method: as §1, §2, §3

[1] = test system: Staphylococcus aureus MI (VISA); assay: MIC, S. aureus categories (Test Example 3); format: cell-based
Method: (§4) The antibacterial activities of the compound J-131CP against Staphylococcus aureus strains belonging to the five categories of Staphylococcus aureus, i.e., MSSA, MRSA, community-acquired-infection type MRSA (CA-MRSA), VISA, and VRSA, were investigated.
as §2
(§5) Cell suspensions were prepared in the same manner as that of Test Example 1-1 described in the section of measurement of MIC in Test Example 1-1, except that the strains mentioned in Table 6 were used as Staphylococcus aureus, and MICs of the compound J-131CP and quinolones as the control were determined for the strains in the same manner as that of Test Example 1-1. In Table 6, the amino acid substitution mutations in QRDR of the strains are underlined.

[2] = test system: Staphylococcus aureus BR2 (VISA); assay: MIC, S. aureus categories (Test Example 3); format: cell-based
Method: as §4, §2, §5

[3] = test system: Staphylococcus aureus VRS3a (VRSA); assay: MIC, S. aureus categories (Test Example 3); format: cell-based
Method: as §4, §2, §5

[4] = test system: Staphylococcus aureus USA300FPR (CA-MRSA); assay: MIC, S. aureus categories (Test Example 3); format: cell-based
Method: as §4, §2, §5

[5] = test system: Staphylococcus aureus VRS1 (VRSA); assay: MIC, S. aureus categories (Test Example 3); format: cell-based
Method: as §4, §2, §5

[6] = test system: Staphylococcus aureus KSA36 (MRSA); assay: MIC, S. aureus categories (Test Example 3); format: cell-based
Method: as §4, §2, §5

[7] = test system: Staphylococcus aureus VRS5 (VRSA); assay: MIC, S. aureus categories (Test Example 3); format: cell-based
Method: as §4, §2, §5

[8] = test system: Staphylococcus aureus NCTC8325 (MSSA); assay: MIC, S. aureus categories (Test Example 3); format: cell-based; settings: strain NCTC8325, MSSA
Method: as §4, §2, §5

[9] = test system: Staphylococcus aureus MW2 (CA-MRSA); assay: MIC, S. aureus categories (Test Example 3); format: cell-based; settings: strain MW2, CA-MRSA
Method: as §4, §2, §5

[10] = test system: Staphylococcus aureus ATCC29213 (MSSA); assay: MIC, S. aureus categories (Test Example 3); format: cell-based; settings: strain ATCC29213, MSSA
Method: as §4, §2, §5

S. aureus Mu50 NR1-1 = assay: microbe, parasite or virus in culture; format: cell-based; settings: Staphylococcus aureus, MU50NR11
Method: (§6) Then, the cell suspension was diluted 500 times with CAMHB mentioned above.

E. faecalis 36-15722 = assay: MIC against Enterococcus bacteria; format: cell-based, Enterococcus faecalis; settings: Enterococcus faecalis, 3615722; E. faecalis 36-15722, quinolone-resistant; ParC 80Ile, GyrA 84Ile; read-out: MIC
Method: as §1, §2, §3

[11] = test system: S. aureus FDA209P (ATCC 6538P); assay: microbe, parasite or virus in culture; format: cell-based, Staphylococcus aureus; settings: Staphylococcus aureus, ATCC 6538P / FDA209P / MSSA, quinolone-susceptible MSSA, ParC 80S, GyrA 84S, read-out: MIC
Method: as §6

S. pneumoniae BCLSP37 = assay: MIC against pneumococcus, CAMHB with 5 mass % LHB; format: cell-based, Streptococcus pneumoniae; settings: Streptococcus pneumoniae, BCLSP37, S. pneumoniae BCLSP37, PSSP, quinolone-resistant; ParC 79Phe, GyrA 85Lys; read-out: MIC
Method: (§7) The S. pneumoniae strains used for this test belong to any one of the categories of penicillin-susceptible pneumococcus (penicillin-susceptible Streptococcus pneumoniae, PSSP), penicillin-intermediate pneumococcus (penicillin-intermediate Streptococcus pneumoniae, PISP), and penicillin-resistant pneumococcus (penicillin-resistant Streptococcus pneumoniae, PRSP).
(§8) The lysed horse blood was prepared by adding sterilized water to horse sterile defibered blood (produced by Nippon Bio-Supp. Center) at a ratio of 1:1, subjecting the mixture to freezing and thawing 5 times, then centrifuging the mixture twice at 10,000 rpm for 20 minutes, and filtering the supernatant through a filter.
(§9) The S. pneumoniae strains mentioned in Table 11 were each cultured overnight at 37° C. on a blood agar medium as stationary culture. The blood agar medium was prepared by adding 5 mass % ovine sterile defibered blood (produced by Nippon Bio-Supp. Center) to a heart infusion agar medium (produced by EIKEN CHEMICAL). Each S. pneumoniae strain cultured overnight at 37° C. as stationary culture was further subcultured overnight at 37° C. on fresh blood agar medium as stationary culture. After completion of the culture, cells of each pneumococcus strain were collected with a swab, and suspended in physiological saline, and the suspension was adjusted with physiological saline to show absorbance of 0.08 to 0.13 at 625 nm as measured with an absorbance meter (produced by Amersham), and further diluted 200 times with CAMHB containing 5 mass % LHB.
(§10) In Table 11, the amino acid substitution mutations in QRDR of the strains are underlined.

S. pneumoniae KBSP11 = assay: MIC against pneumococcus, CAMHB with 5 mass % LHB; format: cell-based, Streptococcus pneumoniae; settings: Streptococcus pneumoniae
Method: as §7, §8, §9, §10

[12] = E. faecium NCTC12202, VRE, quinolone-susceptible, read-out: MIC
[13] = Staphylococcus aureus, read-out: MIC
[14] = S. pneumoniae KBSP11, PRSP, quinolone-susceptible, read-out: MIC

Structure (SMILES)	MIC (E. faecium RPR2; Enterococcus faecium, RPR2) [µg/mL]	MIC (E. faecium NCTC12202; [12]) [µg/mL]	MIC [1] [µg/mL]	MIC [2] [µg/mL]	MIC [3] [µg/mL]	MIC [4] [µg/mL]	MIC [5] [µg/mL]	MIC [6] [µg/mL]	MIC [7] [µg/mL]	MIC [8, 13] [µg/mL]	MIC [9, 13] [µg/mL]	MIC ([10]; read-out: MIC) [µg/mL]	MIC (S. aureus Mu50 NR1-1) [µg/mL]	MIC (E. faecalis 36-15722) [µg/mL]	MIC [11] [µg/mL]	MIC (S. pneumoniae BCLSP37) [µg/mL]	MIC (S. pneumoniae KBSP11; PRSP) [µg/mL]	MIC (S. pneumoniae KBSP11; [14]) [µg/mL]	MIC ([9]; Staphylococcus aureus, MRSA) [µg/mL]	MIC [10] [µg/mL]	other results
NC1CCN(c2nc3c(cc2F)c(=O)c(C(=O)O)cn3-c2ccc(F)cc2F)C1 (stereo not drawn) [TSX, tosufloxacin]	> 128	0.25 (≈ 0.618 µM)	16 (≈ 39.6 µM)	32 (≈ 79.1 µM)	> 128	16 (≈ 39.6 µM)	4 (≈ 9.89 µM)	> 128	> 128	≤ 0.06	≤ 0.06	≤ 0.06	0.5 (≈ 1.24 µM)	> 128	≤ 0.06	16 (≈ 39.6 µM)	0.125 (≈ 0.309 µM)				
CC1COc2c(N3CCN(C)CC3)c(F)cc3c(=O)c(C(=O)O)cn1c23 (stereo not drawn) [OFX, ofloxacin]	> 128	1 (≈ 2.77 µM)	128 (≈ 354 µM)	64 (≈ 177 µM)	32 (≈ 88.6 µM)	16 (≈ 44.3 µM)	32 (≈ 88.6 µM)	> 128	> 128	0.25 (≈ 0.692 µM)	0.5 (≈ 1.38 µM)	0.25 (≈ 0.692 µM)	2 (≈ 5.53 µM)	64 (≈ 177 µM)	0.125 (≈ 0.346 µM)	32 (≈ 88.6 µM)		0.5 (≈ 1.38 µM)			
C[C@H]1COc2c(N3CCN(C)CC3)c(F)cc3c(=O)c(C(=O)O)cn1c23 [LVX, levofloxacin]	> 128	1 (≈ 2.77 µM)	32 (≈ 88.6 µM)	8 (≈ 22.1 µM)	16 (≈ 44.3 µM)	4 (≈ 11.1 µM)	16 (≈ 44.3 µM)	> 128	> 128	0.25 (≈ 0.692 µM)			1 (≈ 2.77 µM)	36 (≈ 99.6 µM)	≤ 0.06	32 (≈ 88.6 µM)		1 (≈ 2.77 µM)	0.125 (≈ 0.346 µM)	0.125 (≈ 0.346 µM)	MIC (E. faecium RPR2; E. faecium RPR2, quinolone-resistant, ParC 82Ile, GyrA 84Ile 88Lys): >128 µg/mL
O=c1cc(CO)c2cc(F)c(-c3ccc(O)cc3)cc2n1C1CC1 [J-131CP, 1-cyclopropyl-6-fluoro-4-(hydroxymethyl)-7-(4-hydroxyphenyl)-1,2-dihydroquinolin-2-one]	4 (≈ 12.3 µM)		≤ 0.06	≤ 0.06	≤ 0.06	≤ 0.06	≤ 0.06	≤ 0.06	≤ 0.06			0.25 (≈ 0.768 µM)	0.25 (≈ 0.768 µM)	1 (≈ 3.07 µM)	0.25 (≈ 0.768 µM)	4 (≈ 12.3 µM)	2 (≈ 6.15 µM)		0.125 to 0.25 (≈ 0.384 to 0.768 µM)	0.125 to 0.25 (≈ 0.384 to 0.768 µM)	MIC (E. faecium NCTC12202): 8 µg/mL (≈ 24.6 µM); MIC ([8]; Staphylococcus aureus): 0.125 to 0.25 µg/mL (≈ 0.384 to 0.768 µM); MIC [8]: 0.125 µg/mL (≈ 0.384 µM); MIC [9]: 0.125 µg/mL (≈ 0.384 µM)
